Common to all, as to type: physicochemical
Series [1] is described as follows: Metal complexation, Fe(III)/L system. Particulars: for log β(FemHhLl): spectrophotometric, 15% w/w DMSO/water. How it is done: (§1) The chelating ability of compound 1 towards Fe(III), Cu(II) and Zn(II) was evaluated through the determination of the global formation constants of the complexes via pH-potentiometric and spectrophotometric titrations of the respective 1:1, 1:2 and 1:3 M/L systems in 15% w/w DMSO/water. The fitting analysis of the respective pH-potentiometric curves was done via Hyperquad 2008 [36] while that of the spectrophotometric absorption spectra was performed using Psequad, and the found equilibrium models are presented in Table 2. Compound 1 was chosen because of its better profile after preliminary assays (i.e., good AChE inhibition and antioxidant activity, as well as good ability to inhibit Cu^2+-induced Aβ aggregation).
(§2) To the best of our knowledge, the determination of stability formation constants of the complexes with TA has not yet been done and so the herein calculated values for compound 1 cannot be compared with those from the literature. The metal complexation equilibrium models of compound 1 were determined by the following process: for the Fe/L and Cu/L systems, only spectrophotometric data was used due to the better quality of the experimental results obtained [the 1:1 titration (e.g., Figure 7)] allowed the determination of the stability constant corresponding to the ML species and then this value, as well as the respective spectra, was introduced in the fitting of Fe/L 1:3 or Cu/L 1:2 data]; for the Zn/L system, potentiometric data was used. For the found metal complex models contained in Table 2, MH-2L, MH-1L2 and MH-2L2 correspond to mixed ligand-hydroxo metal complexes.
(§3) Titrations of the selected compound 1, alone or in the presence of the metal ions, were accomplished in a 15% w/w DMSO/H2O medium, at T = 25.0 ± 0.1 °C and ionic strength (I) 0.1 M KCl, by using 0.1 M KOH as titrant. Both glass and Ag/AgCl reference electrodes were previously conditioned in different DMSO/H2O mixtures of increasing DMSO % composition and the response of the glass electrode was evaluated by strong acid–strong base (HCl/KOH) calibrations with the determination of the Nernst parameters by Gran’s method. […] The spectrophotometric measurements were carried out in a 250–320 nm wavelength range at pH ca 2.5-8.0. Under the stated experimental conditions, the pKw value (13.6) was determined and subsequently used in the computations. The stepwise protonation constants of the ligands, Ki = [HiL]/[Hi-1L][H], and the overall metal–complex stability constants, β (MmHhL1) = [MmHhLl]/[M]^m[H]^h[L]^l, were calculated by fitting the pH-potentiometric and spectrophotometric data with, respectively, Hyperquad 2008 [36] and Psequad programs. The metal hydrolysis model was determined under the defined experimental conditions (I = 0.1 M KCl, 15% w/w DMSO/H2O, T = 25.0 ± 0.1 °C) and the following values of stability constants were included in the fitting of the experimental data towards the equilibrium models related to the Fe(III)/L, Cu(II)/L and Zn(II)/L systems: log β (FeH-1) = −1.79, log β (FeH-2) = −4.9, log β (FeH-4) = −20.0; log β (Cu2H-2) = −9.5; log β (ZnH-1) = −8.6, log β (ZnH-3) = −27.2, log β (Zn2H-1) = −8.6. The species distribution curves were obtained with the Hyss program.

Series [2] in a line: Metal complexation, Cu(II)/L system. Particulars: for log β(CumHhLl): spectrophotometric, 15% w/w DMSO/water. The procedure:
as §1, §2, §3

A short description of series [3]: Metal complexation, Zn(II)/L system. Particulars: for log β(ZnmHhLl): potentiometric, 15% w/w DMSO/water. How it is done:
as §1
as §2, with “For the found metal complex models contained in Table 2, MH-2L, MH-1L2 and MH-2L2 correspond to mixed ligand-hydroxo metal complexes.” left out
Titrations of the selected compound 1, alone or in the presence of the metal ions, were accomplished in a 15% w/w DMSO/H2O medium, at T = 25.0 ± 0.1 °C and ionic strength (I) 0.1 M KCl, by using 0.1 M KOH as titrant. Both glass and Ag/AgCl reference electrodes were previously conditioned in different DMSO/H2O mixtures of increasing DMSO % composition and the response of the glass electrode was evaluated by strong acid–strong base (HCl/KOH) calibrations with the determination of the Nernst parameters by Gran’s method. […]

[4] abbreviates: pH 7.4, CL/CM = 10, CM = 10^−6 M.

Each structure is given as a SMILES string. Marks after values point to notes of the source that are not given here.

Take `CCOC(=O)C1=C(O)C(C(C)C)NC1=O` (stereo not shown) [Compound 1, Ethyl 4-hydroxy-5-isopropyl-2-oxo-2,5-dihydro-1H-pyrrole-3-carboxylate]: the “pFe (pM = −log[M])” value in series [1] (setting [4]) came to 16.6. The “log β(FemHhLl)” value in series [1] (species (1-22)) is reported as 5.83(8) ^d; in series [1] (species (101)), 9.46(7) ^d; in series [1] (species (102)) it was 14.30(7) ^d; in series [1] (species (103)), 19.4(1) ^d. Also, the Kd in series [2] (calculated at pH 7.4, read-out: conditional dissociation constant (K’d) for the copper complex) is 83 µM. In series [2] (setting [4]), the “pCu (pM = −log[M])” value is on record as 11.6. Moreover, the figures for the “log β(CumHhLl)” value in series [2] (species (1-12)), in series [2] (species (1-21)) and in series [2] (species (101)) were 6.56(6) ^d, −4.15(7) ^d and 4.08(8) ^d, respectively. The “pZn (pM = −log[M])” value in series [3] (setting [4]) worked out at 6.0. In addition, the “log β(ZnmHhLl)” value in series [3] (species (1-21)) is listed as −11.75(5) ^c; in series [3] (species (101)), 3.16(8) ^c.

The values above are taken from PMC7830597, “Derivatives of Tenuazonic Acid as Potential New Multi-Target Anti-Alzheimer’s Disease Agents” (Biomolecules, 2021).
